Laboratory results reported in ChEMBL document CHEMBL5500406, “Discovery of Novel Proteolysis-Targeting Chimera Molecules as Degraders of Programmed Cell Death-Ligand 1 for Breast Cancer Therapy” (J Med Chem, 2024).
Active and inactive are the calls of the source. The calls are words filed in the database; no cut-off is given here.

Key:
[1] = Volume of distribution at steady state in Sprague-Dawley rat at 3 mg/kg, iv measured for 24 hrs by LC-MS/MS analysis; format: ADME, organism-based; details: in vivo, read-out: Vdss
[2] = target: Protein cereblon/Programmed cell death 1 ligand 1 (Mus musculus, UniProt Q9EP73+Q8C7D2); test: PROTAC activity at CRBN/PD-L1 in mouse 4T1 cells assessed as protein degradation incubated for 24 hrs by Western blot analysis; format: cell-based
[3] = test system: 4T1; test: Antitumor activity against mouse 4T1 cells allografted in BALB/c mouse assessed as reduction in tumor weight at 60 mg/kg, ip qd for 15 days in presence of Paclitaxel; format: functional, organism-based; details: time 15.0 day
[4] = Toxicity in BALB/c mouse allografted with mouse 4T1 cells assessed as body weight loss at 30 to 60 mg/kg, ip qd for 15 days; format: organism-based; details: in vivo, 360 h, dose 30-60 mg/kg, time 15 day
[5] = Half life in Sprague-Dawley rat at 3 mg/kg, iv measured for 24 hrs by LC-MS/MS analysis; format: ADME, organism-based; details: in vivo
[6] = test system: 4T1; test: Antitumor activity against mouse 4T1 cells allografted in BALB/c mouse assessed as increase in IFN-gamma mRNA level in tumor at 60 mg/kg, ip qd for 15 days by qRT-PCR analysis; format: functional, organism-based; details: time 15.0 day
[7] = test system: 4T1; test: Antitumor activity against mouse 4T1 cells allografted in BALB/c mouse at 60 mg/kg, ip qd for 15 days in presence of Paclitaxel relative to control; format: functional; details: 4T1, 360 h, time 15 day, read-out: TGI
[8] = Cmax in Sprague-Dawley rat at 30 mg/kg, ip measured for 24 hrs by LC-MS/MS analysis; format: ADME, organism-based; details: in vivo
[9] = test system: 4T1; test: Antitumor activity against mouse 4T1 cells allografted in BALB/c mouse at 60 mg/kg, ip qd for 15 days relative to control; format: functional; details: 4T1, 360 h, time 15 day, read-out: TGI
[10] = Toxicity in BALB/c mouse allografted with mouse 4T1 cells assessed as pathological change in kidney at 30 to 60 mg/kg, ip qd for 15 days by H and E staining based analysis; format: organism-based; details: in vivo, 360 h, dose 30-60 mg/kg, time 15 day
[11] = test system: 4T1; test: Antitumor activity against mouse 4T1 cells assessed as increase in cell mortality rate at 0.312 uM pretreated with compound followed by co-culture of CD3/CD28-activated PBMC cells measured after 24 hrs by LDH assay relative to control; format: functional
[12] = target: T1, Protein cereblon/Programmed cell death 1 ligand 1 (Mus musculus) (UniProt Q9EP73+Q8C7D2); test: PROTAC activity at CRBN/PD-L1 in mouse 4T1 cells assessed as protein degradation at 0.312 uM incubated for 24 hrs by Western blot analysis relative to control; format: cell-based
[13] = test system: 4T1; test: In vivo PROTAC activity at CRBN/PD-L1 in mouse 4T1 cells allografted in BALB/c mouse assessed as protein degradation at 30 to 60 mg/kg, ip qd for 15 days by IHC analysis; format: functional, organism-based; details: dose 30-60 mg/kg, time 15.0 day
[14] = Toxicity in BALB/c mouse allografted with mouse 4T1 cells assessed as pathological change in kidney at 60 mg/kg, ip qd for 15 days in presence of Paclitaxel by H and E staining based analysis; format: organism-based; details: in vivo, 360 h, time 15 day
[15] = test system: 4T1; test: Antitumor activity against mouse 4T1 cells allografted in BALB/c mouse assessed as reduction in tumor volume at 60 mg/kg, ip qd for 15 days in presence of Paclitaxel; format: functional, organism-based; details: time 15.0 day
[16] = target: T1, Protein cereblon/Programmed cell death 1 ligand 1 (Mus musculus); test: PROTAC activity at CRBN/PD-L1 in mouse 4T1 cells assessed as protein degradation at 0.312 uM incubated for 24 hrs in presence of MG132 by Western blot analysis; format: cell-based
[17] = test system: 4T1; test: Antitumor activity against mouse 4T1 cells allografted in BALB/c mouse assessed as reduction in tumor volume at 30 to 60 mg/kg, ip qd for 15 days; format: functional, organism-based; details: dose 30-60 mg/kg, time 15.0 day
[18] = test system: 4T1; test: Antitumor activity against mouse 4T1 cells assessed as decrease in cell viability at 0.078 to 0.312 uM incubated for 24 hrs by LDH assay; format: functional, cell-based; details: dose 0.078-0.312 µM
[19] = target: T1, Protein cereblon/Programmed cell death 1 ligand 1 (Mus musculus); test: PROTAC activity at CRBN/PD-L1 in mouse 4T1 cells assessed as protein degradation at 0.078 to 0.312 uM incubated for 24 hrs by flow cytometry; format: cell-based; details: dose 0.078-0.312 µM
[20] = test system: 4T1; test: Antitumor activity against mouse 4T1 cells allografted in BALB/c mouse assessed as increase in Prf1 mRNA level in tumor at 60 mg/kg, ip qd for 15 days by qRT-PCR analysis; format: functional, organism-based; details: time 15.0 day
[21] = Toxicity in BALB/c mouse allografted with mouse 4T1 cells assessed as abnormality in biochemical analysis at 60 mg/kg, ip qd for 15 days in presence of Paclitaxel; format: organism-based; details: in vivo, 360 h, time 15 day
[22] = target: T1, Protein cereblon/Programmed cell death 1 ligand 1 (Mus musculus); test: PROTAC activity at CRBN/PD-L1 in mouse 4T1 cells assessed as reduction in green fluorescence in cytoplasm at 0.312 uM incubated for 24 hrs by immunofluorescence analysis; format: subcellular
[23] = Toxicity in BALB/c mouse allografted with mouse 4T1 cells assessed as pathological change in liver at 30 to 60 mg/kg, ip qd for 15 days by H and E staining based analysis; format: organism-based; details: in vivo, 360 h, dose 30-60 mg/kg, time 15 day
[24] = Cytotoxicity against BALB/c mouse PBMC cells at <=0.312 uM incubated for 48 hrs by MTT assay; format: toxicity, cell-based
[25] = target: T2, Protein cereblon (Mus musculus, UniProt Q8C7D2); test: Binding affinity to mouse CRBN assessed as dissociation constant incubated for 15 mins by MST assay
T2 sequence (Q8C7D2 whole entry): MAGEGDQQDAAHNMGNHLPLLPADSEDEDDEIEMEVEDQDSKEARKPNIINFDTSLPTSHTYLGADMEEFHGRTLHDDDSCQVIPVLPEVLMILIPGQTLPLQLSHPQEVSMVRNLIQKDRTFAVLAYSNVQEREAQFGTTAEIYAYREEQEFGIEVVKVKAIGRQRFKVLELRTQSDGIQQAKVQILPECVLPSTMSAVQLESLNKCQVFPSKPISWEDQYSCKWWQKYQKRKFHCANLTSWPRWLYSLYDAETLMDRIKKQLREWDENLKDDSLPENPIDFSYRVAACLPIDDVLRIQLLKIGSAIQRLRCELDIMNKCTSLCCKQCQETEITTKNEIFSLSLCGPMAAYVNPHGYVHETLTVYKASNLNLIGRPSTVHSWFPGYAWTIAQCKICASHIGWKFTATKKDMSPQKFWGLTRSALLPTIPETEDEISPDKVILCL

[26] = target: T1, Protein cereblon/Programmed cell death 1 ligand 1 (Mus musculus); test: PROTAC activity at CRBN/PD-L1 in mouse 4T1 cells assessed as protein degradation at 0.078 to 10 uM measured for 48 hrs by Western blot analysis; format: cell-based; details: dose 0.078-10 µM
[27] = Toxicity in BALB/c mouse allografted with mouse 4T1 cells assessed as pathological change in spleen at 60 mg/kg, ip qd for 15 days in presence of Paclitaxel by H and E staining based analysis; format: organism-based; details: in vivo, 360 h, time 15 day

T1 sequence (Q9EP73 19-290 limits assumed, one chain of several): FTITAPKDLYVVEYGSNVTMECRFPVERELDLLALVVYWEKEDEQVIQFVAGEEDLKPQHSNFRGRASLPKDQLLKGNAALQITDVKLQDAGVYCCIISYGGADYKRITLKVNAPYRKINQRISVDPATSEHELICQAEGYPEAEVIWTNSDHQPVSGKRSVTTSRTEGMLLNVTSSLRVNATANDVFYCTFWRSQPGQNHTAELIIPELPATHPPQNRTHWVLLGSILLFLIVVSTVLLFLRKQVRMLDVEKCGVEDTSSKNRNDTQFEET
Protein cereblon/Programmed cell death 1 ligand 1, sequence (Q9EP73 whole entry, one chain of several): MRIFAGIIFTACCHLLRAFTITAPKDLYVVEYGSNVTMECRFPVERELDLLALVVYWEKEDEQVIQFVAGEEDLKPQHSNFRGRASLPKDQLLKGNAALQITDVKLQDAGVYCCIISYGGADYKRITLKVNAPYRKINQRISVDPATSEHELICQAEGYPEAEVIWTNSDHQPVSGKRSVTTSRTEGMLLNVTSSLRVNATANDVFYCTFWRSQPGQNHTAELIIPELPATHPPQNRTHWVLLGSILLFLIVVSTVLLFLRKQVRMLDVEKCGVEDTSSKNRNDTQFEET

## COc1nc(OCc2cccc(-c3ccccc3)c2C)ccc1CNCCNC(=O)CCCCCCCCNC(=O)COc1ccc(C2CCC(=O)NC2=O)cc1 (configuration not stated)
[1]
  Vd: 23 L/kg
[2]
  DC50: 0.609 µM
[3]
  Activity: Active
[4]
  Activity: Non-Toxic
[5]
  half-life: 57.1 min
[6]
  Activity: Active
[7]
  inhibition in vivo at 60 mg/kg: 86.7%
[8]
  Cmax: 217 ng/mL
[9]
  inhibition in vivo at 60 mg/kg: 83.2%
[10]
  Activity: Non-Toxic
[11]
  Activity: 72.3%
[12]
  Emax: 85%
[13]
  Activity: Active
[14]
  Activity: Non-Toxic
[15]
  Activity: Active
[16]
  Activity: inactive
[17]
  Activity: Active
[18]
  Activity: Active
[19]
  Activity: Active
[20]
  Activity: Active
[21]
  Activity: Non-Toxic
[22]
  Activity: Active
[23]
  Activity: Non-Toxic
[24]
  Activity: Non-Toxic
[25]
  Kd: 132 µM
[26]
  Activity: Active
[27]
  Activity: Non-Toxic
